Active and inactive are the calls of the source. How the calls were made is not given here.
The compounds below were run on B cell line, CD40 signaling inhibition reporter (assay: inhibitors of CD40 signaling, dose response, B cell lineage (AID 1259332);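 further: cells stimulated with CD40 ligand tCD40L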).
`C[C@@H]1CN([C@@H](C)CO)C(=O)c2c(c3ccccc3n2C)-c2ccccc2CO[C@H]1CN(C)Cc1ccccc1` showed an AC50 of 8.22 µM. For `N#CC(C#N)=NNc1ccc(OC(F)(F)F)cc1`, the AC50 was 3.97 µM. In the case of `CC1=CC2OC3CC4OC(=O)C=CC=CC(=O)OCCC(C)C(O)C(=O)OCC2(CC1O)C4(C)C31CO1` (configuration not stated), the AC50 is reported as 0.0067 µM. With `C[C@@H]1CN([C@@H](C)CO)C(=O)c2c(c3ccccc3n2C)-c2ccccc2CO[C@H]1CN(C)Cc1cccc(C(=O)Nc2ccccc2N)c1` the AC50 was > 20 µM (inactive). Work on `C[C@H]1CN([C@@H](C)CO)C(=O)Cc2cc(NS(=O)(=O)c3cccs3)ccc2O[C@@H]1CN(C)Cc1ccc(Cl)c(Cl)c1` yielded an AC50 of 5.83 µM. In the case of `N#Cc1cccc(-c2ccc(C3[C@@H]4CN(C(=O)Nc5ccc(C(F)(F)F)cc5)C[C@H]3N4)cc2)c1` (some centres not stated), the AC50 is reported as 8.9 µM. `CNC(=S)NN=C(C)CCCC(C)=NNC(=S)NC` showed an AC50 of 1.26 µM. With `CCS(=O)(=O)N1Cc2ccccc2CC1C(=O)Nc1nc2ccccc2s1` (configuration not stated) the AC50 was 10.9 µM. Work on `CN(C)c1ccc(C(=C2C=CC(=[N+](C)C)C=C2)c2ccc(N(C)C)cc2)cc1` yielded an AC50 of 0.105 µM. Work on `C[C@H](CO)N1C[C@H](C)[C@H](CN(C)S(=O)(=O)c2ccc(Cl)cc2)Oc2c(NC(=O)Nc3ccc(F)cc3)cccc2C1=O` yielded an AC50 of 6.47 µM. For `N#C[C@@H]1[C@H](c2ccc(C#Cc3ccc(F)cc3)cc2)[C@@H](CO)N1C(=O)C1CCC1`, the AC50 was 4.71 µM. With `C[C@H]1CN([C@@H](C)CO)C(=O)c2c(c3ccccc3n2C)-c2ccccc2CO[C@H]1CN(C)C(=O)Nc1cccc(C(F)(F)F)c1` the AC50 was 8.34 µM. `Cn1cc(C2=C(c3cn(CCCSC(=N)N)c4ccccc34)C(=O)NC2=O)c2ccccc21` was tested, and the AC50 was 0.67 µM. With `CC(=O)OC1C(=O)OCC23CCC4(C)OC4C2OC2CC(OC(=O)C=CC=CC(=O)OCCC1C)C3(C)C21CO1` (configuration not stated) the AC50 was 0.0056 µM. For `O=C(C[C@@H]1CC[C@H]2[C@@H](COC[C@@H](O)CN2Cc2cc(F)ccc2F)O1)NCc1ccc(Oc2ccccc2)cc1`, the AC50 was > 20 µM (inactive). `C[C@H]1CN([C@@H](C)CO)C(=O)c2c(c3ccccc3n2C)-c2ccccc2CO[C@@H]1CN(C)S(=O)(=O)c1ccc([N+](=O)[O-])cc1` was tested, and the AC50 was > 20 µM (inactive). For `C[C@@H]1O[C@@H](O[C@H]2C[C@@H](O)[C@]3(CO)C4C(CC[C@]3(O)C2)[C@@]2(O)CC[C@H](C3=CC(=O)OC3)[C@@]2(C)C[C@H]4O)[C@H](O)[C@H](O)[C@H]1O` (some centres not stated), the AC50 was 0.294 µM. `Cc1noc(C)c1S(=O)(=O)N(C)C[C@@H]1OCc2ccccc2-c2c(n(C)c3ccccc23)C(=O)N([C@@H](C)CO)C[C@@H]1C` was tested, and the AC50 was 11.3 µM. With `CC(C)c1c(O)ccc2c1CCC1C(C)(C)CCC[C@]21C` (some centres not stated) the AC50 was 5.44 µM. For `C[C@@H]1CN([C@H](C)CO)C(=O)c2c(c3ccccc3n2C)-c2ccccc2CO[C@H]1CN(C)C(=O)Nc1cccc(Cl)c1Cl`, the AC50 was 7.74 µM. Compound `CCCCNC(=O)C1(C)CCN1C(=O)c1cc(-c2cccs2)oc1C` (configuration not stated) has an AC50 of 3.11 µM. For `COc1ccc(-c2ccc([C@H]3[C@@H](C#N)N(C(=O)c4cccc(F)c4)[C@H]3CO)cc2)cc1`, the AC50 was > 22 µM (inactive). With `Clc1ccc(CSC(Cn2ccnc2)c2ccc(Cl)cc2Cl)cc1` (configuration not stated) the AC50 was > 20 µM (inactive). `C=C1C(=O)C23C(O)C1CCC2C12CCCC(C)(COC(C)=O)C1C(O)C3(O)OC2` (configuration not stated) gave an AC50 of 0.567 µM. `COC(=O)C1=C(C(=O)OC)C2OC1c1cc3ccccc3cc12` was tested, and the AC50 was 0.738 µM. `[O-]C(=C(C(=S)Nc1cccc2ccccc12)[n+]1ccccc1)c1ccc2c(c1)OCCO2` was tested, and the AC50 was > 20 µM (inactive). In the case of `COCCn1c(C)cc(C(=O)COC(=O)c2ccc(Cl)c(S(N)(=O)=O)c2)c1C`, the AC50 is reported as > 20 µM (inactive). `C[C@@H]1CN([C@H](C)CO)C(=O)c2c(c3ccccc3n2C)-c2ccccc2CO[C@@H]1CN(C)C(=O)c1cc(Cl)cc(Cl)c1` was tested, and the AC50 was 8.65 µM. For `O=C(c1nnsc1S(=O)(=O)c1ccc(Cl)cc1)N1CCOCC1`, the AC50 was 2.31 µM. Compound `COc1c(O)cc2oc3cc(O)c(CC=C(C)C)c(O)c3c(=O)c2c1CC=C(C)C` has an AC50 of 3.6 µM. Compound `CCC(=O)NC(c1ccccc1OC)c1ccc2cccnc2c1O` (configuration not stated) has an AC50 of 8.63 µM. `C[C@H](CO)N1C[C@H](C)[C@H](CN(C)C(=O)C2CCOCC2)Oc2ncc(C#CCc3ccccc3)cc2C1=O` showed an AC50 of 9.51 µM. Work on `Clc1ccc(COC(Cn2ccnc2)c2ccc(Cl)cc2Cl)c(Cl)c1` (configuration not stated) yielded an AC50 of 5.18 µM. `N#C[C@@H]1[C@H](c2ccc(C#Cc3ccccc3F)cc2)[C@@H](CO)N1C(=O)C1CC1` was tested, and the AC50 was 1.59 µM. `Cc1noc(C)c1S(=O)(=O)Nc1ccc2c(c1)CC(=O)N([C@@H](C)CO)C[C@@H](C)[C@@H](CN(C)Cc1ccc(Oc3ccccc3)cc1)O2` was tested, and the AC50 was 7.39 µM. `CC(C)CCCCCCCCCCCCC(=O)NCC(=O)NC1C(O)C(O)C(Nc2ncnc3nc[nH]c23)OC1C(O)CO` (configuration not stated) showed an AC50 of 0.0128 µM. With `COc1ccc2c3c([nH]c2c1)[C@H](CO)N(C(=O)Nc1cccc(F)c1)CC31CCN(S(=O)(=O)c2cccc(C)c2)CC1` the AC50 was > 20 µM (inactive). `COc1cc(C(C)C)c2c(c1)S(=O)(=O)N(COc1cc(=O)n3cccc(OCCN4CCCCC4)c3n1)C2=O` showed an AC50 of 2.64 µM. Compound `COc1ccc(/C=C/C(=O)Nc2ccccc2C(=O)O)cc1OC` has an AC50 of 6.12 µM. With `NC(=O)c1c(Br)n(C2OC(CO)C(O)C2O)c2ncnc(N)c12` (configuration not stated) the AC50 was 3.84 µM. `CC(C)(C)OC(=O)CC(S(=O)(=O)c1ccccc1)S(=O)(=O)c1ccccc1` gave an AC50 of 0.95 µM. `C[C@@H]1CN([C@@H](C)CO)C(=O)c2ccccc2-c2ccccc2CO[C@@H]1CN(C)Cc1ccc(Oc2ccccc2)cc1` was tested, and the AC50 was > 20 µM (inactive). With `CCN1/C(=C/c2sc(-c3ccccc3C)c[n+]2C)Sc2ccccc21` the AC50 was 1.91 µM. Compound `CCCNC(=O)N1[C@H](C#N)[C@H](c2ccc(C#Cc3cccc(F)c3)cc2)[C@H]1CO` has an AC50 of 5.57 µM. `CN(C)c1ccc(C=c2c3cc(O)ccc3n3c2cc(-c2ccccc2)[n+]3C)cc1` showed an AC50 of 3.43 µM. `c1ccc(OCCSc2nnc3sc4ccccc4n23)cc1` gave an AC50 of 4.7 µM. `O=S(c1ccccc1O)S(=O)c1ccccc1O` (configuration not stated) was tested, and the AC50 was 4.55 µM. In the case of `CCN1C(=O)C(CC(=O)Nc2ccc(F)cc2)N(Cc2ccco2)C1=S` (configuration not stated), the AC50 is reported as 5.03 µM. `C[C@H](CO)N1C[C@H](C)[C@H](CN(C)C(=O)Nc2cccc(Cl)c2Cl)OCc2ccccc2-c2c(n(C)c3ccccc23)C1=O` showed an AC50 of 5.24 µM. In the case of `CCN(CC)c1ccc(C(NC(=O)C(C)C)c2ccc3cccnc3c2O)cc1` (configuration not stated), the AC50 is reported as > 20 µM (inactive). With `CCCn1c(NC(=O)c2cccc(S(=O)(=O)N3CCCC3)c2)nc2ccccc21` the AC50 was 2.02 µM. In the case of `Cc1cc(OCC(=O)OCC(=O)NCc2ccco2)ccc1Cl`, the AC50 is reported as 9.63 µM. In the case of `CC[N+]1(C)CCC(O)(c2ccc(OC)cc2)C(C(=O)c2ccc(OC)cc2)C1` (configuration not stated), the AC50 is reported as 3.75 µM. `Cc1ccc(O)c(N=Nc2ccccc2)n1` was tested, and the AC50 was 8.46 µM. In the case of `COc1ccc(CC2C(=O)NC(C)C(=O)N(C)C3C(=O)N(C)C(Cc4ccc(O)c(c4)Oc4ccc(cc4)C3O)C(=O)NC(C)C(=O)NC(C)C(=O)N2C)cc1` (configuration not stated), the AC50 is reported as 0.00902 µM. With `Cc1cc(C(=O)COC(=O)c2ccco2)c(C)n1Cc1ccco1` the AC50 was 0.11 µM. `COc1cc2c(cc1OC)C(=O)C(Br)CC2` (configuration not stated) gave an AC50 of 3.76 µM. In the case of `C[C@H]1CN([C@@H](C)CO)C(=O)c2ccccc2-c2ccccc2CO[C@@H]1CN(C)Cc1ccccc1C(F)(F)F`, the AC50 is reported as 7.28 µM. `Cc1ccc(S(=O)(=O)CCC(=O)N(CCCN2CCOCC2)c2nc3ccccc3s2)cc1` was tested, and the AC50 was 8.01 µM. With `COc1ccc(S(=O)(=O)Nc2ccc3c(c2)C(=O)N([C@H](C)CO)C[C@H](C)[C@@H](CN(C)Cc2ccc(C(F)(F)F)cc2)OCCCC[C@@H](C)O3)cc1` the AC50 was 11.4 µM. Compound `COC(=O)C1=C(C(=O)OC)C(C(=O)OC)C(C(=O)OC)C(C(=O)OC)(C(=O)OC)C(C(=O)OC)=C1C(=O)OC` (configuration not stated) has an AC50 of 3.44 µM. For `COc1ccc(/C=N/Nc2ncccc2[N+](=O)[O-])c(OC)c1`, the AC50 was 4.23 µM.
